The values below come from US8921405B2, “Compounds” (Orexo AB, priority 2009, dated 2014).

Each structure is given as a SMILES string. Read-outs that look alike come from different tables or passages of the source.

The target of this experiment is T1, recombinant human mPGES-1 (Homo sapiens, UniProt O14684).
T1 construct: made in house; host or cells: Rosetta E. coli (membrane/microsome fraction)
T1 sequence (O14684 1-152): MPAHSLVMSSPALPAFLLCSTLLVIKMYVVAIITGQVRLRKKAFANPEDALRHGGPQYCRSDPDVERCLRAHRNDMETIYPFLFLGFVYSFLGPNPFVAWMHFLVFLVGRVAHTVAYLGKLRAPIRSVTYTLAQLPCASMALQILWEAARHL
Nature of the experiment: mPGES-1 HTRF assay (inhibition of PGE2 formation from PGH2). In kind it is biochemical. As to the method: The basis of the assay used is to measure the inhibition of microsomal prostaglandin E2 synthase-1 (mPGES-1) dependent prostaglandin (PG) E2 formation from PGH2 by different compounds. Thus, the formation of PGE2 is used as signal and a lowering of this signal can be interpreted as inhibition of mPGES-1. […] Microsomes from Rosetta E. coli bacteria expressing recombinant human mPGES-1 can be derived as described below: Inoculate 5 ml LB with Amp and Chloro with bacteria from freeze culture. Incubate over night at 37° C. with 200 rpm. Thereafter, inoculate 500-800 ml LB containing Amp and Chloro with the 5 ml on culture and grow to OD640 of 0.6-0.8. Chill the culture to +4° C. before induction. Induce the culture with IPTG at a final concentration of 400 μM. Express the protein at room temp 18-23° C. with 200 rpm shaking over night. The following steps can be performed on the following day: • 1. Spin down the cells in 250 ml centrifuge flasks for 15 min at 7000 rpm • 2. Dissolve the pellet from 250 ml culture in 12.5 ml homogenization buffer • 3. Disintegrate the cells by sonication, 4×10 seconds at 35% amplitude • 4. Add 2.5 ml MgCl2 (100 mM) and DNase 12.5 μl (0.8 mg/ml) and incubate on ice for 30 min • 5. Spin down the bacteria debris and save the supernatant, 7000 rpm for 15 min • 6. Isolate the protein containing membranes in the supernatant by ultracentrifugation 45000×g for 1 hour. • 7. Discard the supernatant and dissolve the pellet in 20 mM KPi buffer and aliquot the enzyme and store aliquots at −80° C. Before each experiment is performed an aliquot of the enzyme is thawed and it can then be dissolved in 0.1 M KPi pH 7.4 buffer containing 2.5 mM GSH. 50 μl of this enzyme solution is subsequently dispensed in a 384-well plate at room temperature. 0.5 μl of the inhibitor dissolved in DMSO is thereafter added to each well and incubated for 25 minutes at room temperature. Subsequently, 2 μl of PGH2 dissolved in an appropriate solvent is added to each well and after one minute at room temperature, the acidified stop solution containing FeCl2 is added. 4 μl of the total volume is transferred to a separate plate and diluted 750-fold in two separate steps before quantification of PGE2. In order to quantitate the amount of PGE2 that has been formed, a homogenous time resolved fluorescent (HTRF) detection of PGE2 can be performed by the use of a commercially available kit from CisBio essentially according to the manufacturer's protocol. […] The sealing film is thereafter removed from the NC wells. • 5 μl Eu3+-cryptate labeled anti-PGE2 can now be added to rows 1 to 24 by using a Multidrop. • The plate can now be covered with sealing film. • The plate can now be centrifuge at 1200 rpm for 1 minute and place at 4° C. overnight. After the over night incubation the fluorescence is measured by the use of an appropriate microplate reader. […] The extent of the specific HTRF is measured as a ratio of the emission intensity at 665 nm vs. that at 620 nm. A standard curve using synthetic PGE2 is used to quantify the amount of PGE2 in unknown samples. The degree of inhibition can be calculated as percent inhibition by dividing the amount of PGE2 formed in unknown samples by the amount of PGE2 formed in control samples.
Background: Time-resolved FRET reads energy transfer from a long-lived donor to a nearby acceptor.

[1] abbreviates: compound concentration of 10 μM, HTRF assay, read-out: % inhibition.

One may read the inhibition as the percentage by which the read-out fell short of the control. Turning to `Cn1c(Nc2cc(CNC(=O)C3(C)CCCC3)ccc2Cl)nc2cc(C(=O)Nc3ccc(Br)cc3)ccc21` [Example 41, N-(4-Bromophenyl)-2-{2-chloro-5-[(1-methylcyclopentylamido)methyl]-phenylamino}-1-methylbenzimidazole-5-carboxamide], the inhibition at 10 µM under setting [1] is 100%.

A word on the IC50: it is the concentration that inhibits the measured activity by half. Regarding `Cn1c(Nc2cc(CNC(=O)C3(C(F)(F)F)CC3)ccc2F)nc2cc(C(=O)Nc3ccc(Br)cc3)c(OCC(F)F)cc21` [Example 66, N-(4-Bromo-phenyl)-2-(2-fluoro-5-{[(1-trifluoromethyl-cyclopropanecarbonyl)-amino]-methyl}-phenylamino)-6-(2,2-difluoro-ethoxy)-1-methyl-1H-benzimidazole-5-carboxylic acid amide], where the note is “HTRF assay”, the IC50 is 3 nM.

Consider `Cn1c(Nc2cc(CNC(=O)C3(C)CCCO3)ccc2Cl)nc2cc(C(=O)Nc3ccc(Br)cc3)ccc21` (stereo not shown) [Example 49, N-(4-Bromophenyl)-2-{2-chloro-5-[(2-methyl-2-tetrahydrofurylamido)-methyl]phenylamino}-1-methylbenzimidazole-5-carboxamide], for which the inhibition at 10 µM under setting [1] amounted to 100%.

As for `Cn1c(Nc2cc(CNS(=O)(=O)C(C)(C)C)ccc2Cl)nc2cc(C(=O)Nc3ccc(Br)cc3)c(OCC(F)F)cc21` [Example 82, N-(4-Bromo-phenyl)-2-(2-chloro-5-{[(tert-butylsulfonyl)-amino]-methyl}-phenylamino)-6-(2,2-difluoro-ethoxy)-1-methyl-1H-benzimidazole-5-carboxylic acid amide], the concentration for half-maximal inhibition (IC50) (HTRF assay) amounted to 3 nM. Take `Cn1c(Nc2cc(CNC(=O)C3(C)CCC(F)(F)CC3)ccc2Cl)nc2cc(C(=O)Nc3ccc(Br)cc3)ccc21` [Example 51, N-(4-Bromophenyl)-2-{2-chloro-5-[(4,4-difluoro-1-methylcyclohexyl-amido)methyl]phenylamino}-1-methylbenzimidazole-5-carboxamide]: the inhibition at 10 µM under setting [1] turned out to be 94%.

Regarding `Cn1c(Nc2cc(CNC(=O)C3(C(F)(F)F)CC3)ccc2Cl)nc2cc(C(=O)NCCCC(F)(F)F)c(OCC(F)F)cc21` [Example 61, N-(4,4,4-Trifluorobutyl)-2-(2-chloro-5-{[(1-trifluoromethyl-cyclopropanecarbonyl)-amino]-methyl}-phenylamino)-6-(2,2-difluoro-ethoxy)-1-methyl-1H-benzimidazole-5-carboxylic acid amide], the IC50 (HTRF assay) is 1 nM.

For the compound `Cn1c(Nc2cc(CNC(=O)C(C)(C)C(F)(F)F)ccc2Cl)nc2cc(C(=O)Nc3ccc(Br)cc3)c(OCC(F)F)cc21` [Example 77, N-(4-Bromo-phenyl)-2-(2-chloro-5-{[(1-methyl-1-trifluoromethyl-ethylcarbonyl)-amino]-methyl}-phenylamino)-6-(2,2-difluoro-ethoxy)-1-methyl-1H-benzimidazole-5-carboxylic acid amide], for the setting “HTRF assay”, the IC50 amounted to 4 nM.

`COc1cc2c(cc1C(=O)Nc1ccc(Br)cc1)nc(Nc1cc(CNC(=O)C3(C(F)(F)F)CC3)ccc1Cl)n2C` [Example 63, N-(4-Bromo-phenyl)-2-(2-chloro-5-{[(1-trifluoromethyl-cyclopropanecarbonyl)-amino]-methyl}-phenylamino)-6-methoxy-1-methyl-1H-benzimidazole-5-carboxylic acid amide]: the IC50 (HTRF assay) was 2 nM.

For the compound `Cn1c(Nc2cc(CNC(=O)C3(C)CCCCC3)ccc2Cl)nc2cc(C(=O)NC3CCCC3)ccc21` [Example 14, 2-{2-Chloro-5-[(1-methylcyclohexylamido)methyl]phenylamino}-N-cyclopentyl-1-methylbenzimidazole-5-carboxamide], the inhibition at 10 µM under setting [1] was 100%.

Turning to `Cn1c(Nc2cc(CNC(=O)C3(C)CCCCC3)ccc2Cl)nc2cc(C(=O)NCc3ccccn3)ccc21` [Example 20, 2-{2-Chloro-5-[(1-methylcyclohexylamido)methyl]phenylamino}-1-methyl-N-(2-pyridinylmethyl)benzimidazole-5-carboxamide], the inhibition at 10 µM under setting [1] turned out to be 100%. Still for that read-out and setting: for `CC1(C(=O)NCc2ccc(Cl)c(Nc3nc4ccc(C(=O)NC5CCCC5)cc4[nH]3)c2)CCCCC1` [Example 13, 2-{2-Chloro-5-[(1-methylcyclohexylamido)methyl]phenylamino}-N-cyclopentylbenzimidazole-5-carboxamide] the value was 100%. Take `COc1cc2[nH]c(Nc3cc(CNC(=O)C4(C(F)(F)F)CC4)ccc3Cl)nc2cc1C(=O)Nc1ccc(Br)cc1` [Example 69, N-(4-Bromo-phenyl)-2-(2-chloro-5-{[(1-trifluoromethyl-cyclopropanecarbonyl)-amino]-methyl}-phenylamino)-6-methoxy-1H-benzimidazole-5-carboxylic acid amide]: the IC50 (HTRF assay) was 1 nM.

For the compound `Cn1c(Nc2cc(CNC(=O)C(C)(C)C)ccc2Cl)nc2cc(C(=O)N[C@H]3CC[C@H](C(F)(F)F)CC3)c(OCC(F)(F)F)cc21` [Example 98, N-(trans-4-Trifluoromethyl-cyclohex-1-yl)-1-methyl-2-(2-chloro-5-{[(tert-butylcarbonyl)-amino]-methyl}-phenylamino)-6-(2,2,2-trifluoro-ethoxy)-1H-benzimidazole-5-carboxylic acid amide], under “HTRF assay”, the IC50 stood at 6 nM. For `Cn1c(Nc2cc(CNC(=O)C3CCC(F)(F)CC3)ccc2Cl)nc2cc(C(=O)Nc3ccc(Br)cc3)ccc21` [Example 35, N-(4-Bromophenyl)-2-{2-chloro-5-[(4,4-difluorocyclohexylamido)-methyl]phenylamino]-1-methylbenzimidazole-5-carboxamide], the inhibition at 10 µM under setting [1] is 100%. Turning to `CC(=O)NC(C)c1ccc(Cl)c(Nc2nc3cc(C(=O)Nc4ccc(Br)cc4)ccc3n2C)c1` (stereo not shown) [Example 1, 2-[5-(1-Acetamidoethyl)-2-chlorophenylamino]-N-(4-bromophenyl)-1-methylbenzimidazole-5-carboxamide], the inhibition at 10 µM is 100%.

With `CC1(C(=O)NCc2ccc(Cl)c(Nc3nc4cc(C(=O)N5CCCC5)ccc4[nH]3)c2)CCCCC1` [Example 4, N-{4-Chloro-3-[5-(1-pyrrolidinylcarbonyl)-2-benzimidazolylamino]benzyl}-1-methylcyclohexylamide], the inhibition at 10 µM under setting [1] was 83%. For `Cn1c(Nc2cc(CNC(=O)c3c(F)cccc3Cl)ccc2Cl)nc2cc(C(=O)Nc3ccc(Br)cc3)c(OCC(F)F)cc21` [Example 74, N-(4-Bromo-phenyl)-2-(2-chloro-5-{[(2-chloro-6-fluorophenylcarbonyl)-amino]-methyl}-phenylamino)-6-(2,2-difluoro-ethoxy)-1-methyl-1H-benzimidazole-5-carboxylic acid amide], the IC50 (HTRF assay) came out at 4 nM. Same read-out and setting: next, `COc1cc2[nH]c(Nc3cc(CNC(=O)C(N)C(F)(F)F)ccc3C(F)(F)F)nc2cc1C(=O)N[C@H]1CC[C@H](C(F)(F)F)CC1` (stereo partly drawn) [Example 92, 2-({5-[(2-Amino-3,3,3-trifluoro-propionyl)amino]methyl}-2-trifluoromethyl-phenylamino)-6-methoxy-N-(trans-4-trifluoromethyl-cyclohex-1-yl)-1H-benzo[d]imidazole-5-carboxamide]: 7 nM; `Cn1c(Nc2cc(CNC(=O)C(C)(F)F)ccc2Cl)nc2cc(C(=O)Nc3ccc(Br)cc3)c(OCC(F)F)cc21` [Example 72, N-(4-Bromo-phenyl)-2-(2-chloro-5-{[(1,1-difluoro-ethylcarbonyl)-amino]-methyl}-phenylamino)-6-(2,2-difluoro-ethoxy)-1-methyl-1H-benzimidazole-5-carboxylic acid amide]: 3 nM.
